In paper PMC10683482, “Offsetting Low-Affinity Carbohydrate Binding with Covalency to Engage Sugar-Specific Proteins for Tumor-Immune Proximity Induction” (ACS Central Science, 2023):

Assays:
[1] = test system: PSMA-expressing target cells (Hek-PSMA, LNCaP, C4-2); assay: ADCP assay with anti-23F and U937 monocytes; assay type: cell-based, human; details: 8 μM compound with 4 μM anti-23F 24 h; 1 h, 37 °C; flow cytometry
Procedure: (§1) Figure 5 Functional analysis of PSMA-targeting SuFEx cARMs. A. Chemical structure of the functional GU cARM molecule used for PSMA targeting. B. Confocal (top) and fluorescent imaging (bottom) of Hek-PSMA cells treated with anti-23F only or anti-23F antibody pre-incubated with rhamnose-SO2F-cARM 14. C. Jurkat activation assay evaluation of 14 directly in polyclonal human IgG. Each cARM/ARM (9 μM) was incubated with polyclonal human IgG (230 μM) overnight and then added to pre-plated Hek-P cells (50,000 cells). To this cell solution, luciferase expressing jurkat cells were added and incubated for 24 hours. Activation of jurkat cells was determined by measuring luciferase expression with a BioGlo assay kit. D. ADCP assays using various PSMA-expressing model and bonafide cancer cell lines. Each cARM/ARM (8 μM) was incubated with anti-23F (4 μM) overnight followed by addition to target cells (150,000 cells). Next, IFN-γ activated monocytes (150,000 cells) were added and incubated for 1 hour at 37 °C. ADCP was determined via flow cytometry.
Finally, the capacity of Rha-cARMs to induce ADCP of multiple target cell lines (varying in PSMA expression) was evaluated. ADCP represents a major mode of antitumor monocyte/macrophage immunotherapeutic function, also invoked by several FDA-approved monoclonal antibody therapies. […]

Hek-PSMA cells = assay: ADCC reporter (jurkat activation) assay directly in polyclonal human IgG (Figure 5C); assay type: cell-based; details: 9 μM compound with 230 μM human IgG 24 h, no column step
Procedure: as §1
Next, the capacity of alkyl-AI-cARM 10, alkyl-ARM 11, and SO2F-cARM 14 to direct immune activation via polyclonal anti-rhamnose antibodies was evaluated using a modified ADCC reporter assay (Figure 5C). ADCC represents a major mode of antitumor NK cell immunotherapeutic function, common to many FDA-approved monoclonal antibody therapies. […]

C[C@@H]1O[C@@H](OCc2cn(CCc3cn(C(=O)OCCNC(=O)CCCCCNC(=O)CCCCCNC(=O)CCCCCNC(=O)NCCCC[C@H](NC(=O)N[C@@H](CCC(=O)O)C(=O)O)C(=O)O)cn3)nn2)[C@H](O)[C@H](O)[C@H]1O [compound 10]
induction of ADCP [1]: nonfunctional | jurkat (immune) activation (Hek-PSMA cells): failed to direct immune activation

C[C@@H]1O[C@@H](OCc2cn(CCCNC(=O)OCCNC(=O)CCCCCNC(=O)CCCCCNC(=O)CCCCCNC(=O)NCCCC[C@H](NC(=O)N[C@@H](CCC(=O)O)C(=O)O)C(=O)O)nn2)[C@H](O)[C@H](O)[C@H]1O [compound 11]
induction of ADCP [1]: failure | jurkat (immune) activation (Hek-PSMA cells): failed to direct immune activation
